The text below walks through data of patent US20050120403A1, “Inhibition of generative propagation in genetically modified herbicide resistant grasses” (Advanta Seeds B. V., priority 2000, published 2005).

Experiment [1] relates to Lolium perenne L. (perennial ryegrass) AtH1-expressing transformants. Put plainly: Relief of delayed heading by gibberellins (spraying, Long Day conditions). To be noted: for Mean Heading Time: transformant (T) plants, 30 mg/L in 5% ethanol + 0.01% Tween-20, sprayed six times over two weeks, days after the first spraying; for effect on heading as compared to non-treated controls: transformant plants, gibberellin 30 mg/L spray. Format: in vivo. The text has this: Primary transformants derived from Lolium perenne L. (perennial ryegrass) using pVDH636 were vernalized and then subjected to Long Day (LD) conditions in the greenhouse (17 hr light/7 hr dark). […] AtH1-expressing plants are generally very leafy (FIG. 10).
Four different gibberellin compounds, which differ in their florigenicity (Evans et al., 1990), were used to treat 34 clones per compound and their effect on heading time of transformants and controls was observed. Gibberellin was applied in solvent (5% ethanol supplemented with 0.01% Tween-20 surfactant) at 30 mg/L. It was applied by spraying six times with about 2-3 ml per plant over two weeks, started one week after the beginning of LD conditions. Mean heading time is shown in days after the first spraying. Non-transformant controls were treated with the solvent only.
Transformant (T) and non-transformant (NT) control plants (Table 5) were treated with the indicated gibberellin. […] Variation between transformants for their sensitivity to gibberellins could be great.

Experiment [2] has as its system Arabidopsis and tobacco overexpressing AtH1. To be noted: exogenous application; AtH1 overexpression in dicots; cited from earlier work.

Marks after values point to notes of the source that are not given here.

16,17-dihydro-GA5 [diHGA5]: in experiment [1], the “Mean Heading Time” value is listed as 34.2 ^ab days. For the compound `C=C1C[C@]23C[C@@]1(O)CC[C@H]2[C@@]12C=C[C@H](O)[C@@](C)(C(=O)O1)[C@H]2[C@@H]3C(=O)O` [GA3, gibberellic acid], the “Mean Heading Time” value in experiment [1] is 34.1 ^ab days. Further, the “reversal of inhibited flowering phenotype” value in experiment [2] was “can be reversed”. As for `C=C1C[C@]23C[C@@]1(O)CC[C@H]2[C@@]12CC=C[C@@](C)(C(=O)O1)[C@H]2[C@@H]3C(=O)O` [GA5], in experiment [1], the “Mean Heading Time” value is 33.5 ^a days and the “effect on heading as compared to non-treated controls” value was “significantly stimulated heading”.

`C=C1C[C@]23C[C@@]1(O)CC[C@H]2[C@@]12CCC[C@@](C)(C(=O)O1)[C@H]2[C@@H]3C(=O)O` [GA20]: in experiment [1], the “Mean Heading Time” value is reported as 37.8 ^b days and the “effect on heading as compared to non-treated controls” value is reported as “somewhat delayed heading”.
